Assay [1] deals with m-IMCD3 cells expressing PDE4 long forms. Put plainly: cAMP levels in PGE2-stimulated 3D m-IMCD3 cell culture media. The format is cell-based. The settings on record: Mus musculus, mIMCD3; 3 μM test compound; compared to 100% for (DMSO + PGE2); read-out: cAMP level (% of PGE2-stimulated). The protocol: HEK 293 and MDCK cells (Public Health England, Cell Culture Collections) were maintained in Dulbecco's Modified Eagle's Medium (DMEM) supplemented with 10% (v/v) fetal bovine serum (FBS) (Seralab), 2 mM L-glutamine and 100 U/mL penicillin streptomycin cocktail (ThermoFisher); termed complete media. Clonal HEK 293 cell lines were maintained in complete media supplemented with 0.6 mg/ml G418 (Enzo Life Sciences). Mouse inner medullary collecting duct (m-IMCD3) cells [American Type Culture Collection (ATCC)] were maintained in media consisting of DMEM/Hams F-12 50/50 Mix (DMEM F12; Corning) supplemented with penicillin streptomycin cocktail (100 U/mL) and FBS (10% v/v) (DMEM F12-10% FBS).
Activation of intracellular PDE4 long forms leads to a reduction of both intracellular cAMP and externalised cAMP (Omar et al., PNAS 116: 13320-13329, 2019). This reduction may be measured in the cell culture media supernatant of 3D cystic cell cultures, such as in the m-IMCD3 cell cyst suppression assay described in Experiment 3.
Following the completion of the m-IMCD3 cell cyst suppression assay (Experiment 3), the cAMP level in the assay media from individual or pooled assay wells was measured using a cAMP ELISA kit (Enzo Life Sciences) or a LANCE Ultra cAMP kit (PerkinElmer) according to the manufacturer's instructions.

In another assay the test system is m-IMCD3 cells. Kind of assay: Inhibition of PGE2-stimulated in vitro cyst formation in m-IMCD3 cells. The format is cell-based, mouse. The settings on record: Mus musculus, mIMCD3, 144 h, mean cyst area, 100% for (DMSO + PGE2) and 0% for DMSO control, 6 days of culture; for activity at 3 µM: read-out: % Cyst area after incubation with 3 μM test compound; for activity at 10 µM: read-out: % Cyst area after incubation with 10 μM test compound. In outline:
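Mean cyst area after 6 days, expressed relative to DMSO+PGE2 (100%) and DMSO alone (0%), from z-stack images. Mouse m-IMCD3 spheroids grew in collagen I/Matrigel gels and received PGE2 (100 nM final) with test compound (0.1% DMSO) starting 18–24 h post-plating, media refreshed at day 2 or 3.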

Take `CCN1CC2CCC(C1)N2c1nc2c(s1)CN(C(=O)NCc1ccc(F)cc1)CC2` [Example 300, 2-(3-ethyl-3,8-diazabicyclo[3.2.1]octan-8-yl)-N-(4-fluorobenzyl)-6,7-dihydrothiazolo[5,4-c]pyridine-5(4H)-carboxamide]: the activity at 3 µM in assay [1] was 48%; in the assay on m-IMCD3 cells, -3%.
The corresponding values for `CCN1CC2CCC(C1)N2c1nc2c(s1)CN(S(=O)(=O)Cc1ccc(F)cc1)CC2` [Example 286, 2-(3-ethyl-3,8-diazabicyclo[3.2.1]octan-8-yl)-5-((4-fluorobenzyl)sulfonyl)-4,5,6,7-tetrahydrothiazolo[5,4-c]pyridine] are 52% and -2%.
In the same order, the values of `CCN1CCN(c2nc3c(s2)CN(C(=O)N[C@H]2CCOc4ccccc42)CC3)CC1` [Example 297, (S)—N-(chroman-4-yl)-2-(4-ethylpiperazin-1-yl)-6,7-dihydrothiazolo[5,4-c]pyridine-5(4H)-carboxamide] are 45% and 9%.
For `CC(C)C(=O)N1Cc2sc(N3C4CCC3CNC4)nc2CC1(C)C` [Example 268, 1-(2-(3,8-diazabicyclo[3.2.1]octan-8-yl)-6,6-dimethyl-6,7-dihydrothiazolo[5,4-c]pyridin-5(4H)-yl)-2-methylpropan-1-one], the activity at 3 µM in assay [1] is 39%; in the assay with m-IMCD3 cells, 1%.
Turning to `CC(C)N1CC2CCC(C1)N2c1nc2c(s1)CN(C(=O)CC1CCCC1)CC2` [Example 290, 2-cyclopentyl-1-(2-(3-isopropyl-3,8-diazabicyclo[3.2.1]octan-8-yl)-6,7-dihydrothiazolo[5,4-c]pyridin-5(4H)-yl)ethan-1-one], the values for the activity at 3 µM (in assay [1]; with m-IMCD3 cells) were 35% and -9%, respectively.
Regarding `O=C(c1ccccc1F)N1CCc2nc(N3C4CCC3CNC4)sc2C1` [Example 209, (2-(3,8-diazabicyclo[3.2.1]octan-8-yl)-6,7-dihydrothiazolo[5,4-c]pyridin-5(4H)-yl)(2-fluorophenyl)methanone], the activity at 3 µM with m-IMCD3 cells was -5%.
As for `CC1(C)CCN(C(=O)N2CCc3nc(N4C5CCC4CNC5)sc3C2)C1` [Example 121, (2-(3,8-diazabicyclo[3.2.1]octan-8-yl)-6,7-dihydrothiazolo[5,4-c]pyridin-5(4H)-yl)(3,3-dimethylpyrrolidin-1-yl)methanone], the activity at 10 µM in the assay on m-IMCD3 cells turned out to be 0%.
`CCCN1CC2CCC(C1)N2c1nc2c(s1)CN(C(=O)CC1CCCC1)CC2` [Example 292, 2-cyclopentyl-1-(2-(3-propyl-3,8-diazabicyclo[3.2.1]octan-8-yl)-6,7-dihydrothiazolo[5,4-c]pyridin-5(4H)-yl)ethan-1-one]: the activity at 3 µM in the assay with m-IMCD3 cells is 0%.
Turning to `CC(C)(C(=O)N1CCc2nc(N3C4CCC3CNC4)sc2C1)C1CCCC1` [Example 146, 1-(2-(3,8-diazabicyclo[3.2.1]octan-8-yl)-6,7-dihydrothiazolo[5,4-c]pyridin-5(4H)-yl)-2-cyclopentyl-2-methylpropan-1-one], the activity at 10 µM with m-IMCD3 cells amounted to 16%.
As for `CC(C)C(=O)N1CCc2nc(N3C4CCC3CNC4)sc2C1` [Example 20, 1-(2-(3,8-diazabicyclo[3.2.1]octan-8-yl)-6,7-dihydrothiazolo[5,4-c]pyridin-5(4H)-yl)-2-methylpropan-1-one], the activity at 10 µM with m-IMCD3 cells came out at 9%.
Turning to `O=C(c1ccc(OC(F)F)cc1)N1CCc2nc(N3C4CCC3CNC4)sc2C1` [Example 204, (2-(3,8-diazabicyclo[3.2.1]octan-8-yl)-6,7-dihydrothiazolo[5,4-c]pyridin-5(4H)-yl)(4-(difluoromethoxy)phenyl)methanone], the activity at 3 µM in the assay with m-IMCD3 cells worked out at 4%.
For `CC(C)(C)[C@@H](O)C(=O)N1CCc2nc(N3C4CCC3CNC4)sc2C1` [Example 176, (2R)-1-(2-(3,8-diazabicyclo[3.2.1]octan-8-yl)-6,7-dihydrothiazolo[5,4-c]pyridin-5(4H)-yl)-2-hydroxy-3,3-dimethylbutan-1-one], the activity at 3 µM in the assay on m-IMCD3 cells was 12%.
Consider `Cc1ccc(C(=O)N2CCc3nc(N4C5CCC4CNC5)sc3C2)c(C)c1` [Example 225, (2-(3,8-diazabicyclo[3.2.1]octan-8-yl)-6,7-dihydrothiazolo[5,4-c]pyridin-5(4H)-yl)(2,4-dimethylphenyl)methanone], for which, in the assay on m-IMCD3 cells, the activity at 3 µM is -1%.
The same measure, in the same setting: next, `O=C(CC12CCC(CC1)C2)N1CCc2nc(N3C4CCC3CNC4)sc2C1` [Example 160, 1-(2-(3,8-diazabicyclo[3.2.1]octan-8-yl)-6,7-dihydrothiazolo[5,4-c]pyridin-5(4H)-yl)-2-(bicyclo[2.2.1]heptan-1-yl)ethan-1-one]: -2%.
As to `O=C(c1cccc(C(F)F)c1)N1CCc2nc(N3C4CCC3CNC4)sc2C1` [Example 199, (2-(3,8-diazabicyclo[3.2.1]octan-8-yl)-6,7-dihydrothiazolo[5,4-c]pyridin-5(4H)-yl)(3-(difluoromethyl)phenyl)methanone], the activity at 3 µM in the assay on m-IMCD3 cells came to 3%.
On to `CC1(C)CCCC1C(=O)N1CCc2nc(N3C4CCC3CNC4)sc2C1` (stereo not drawn) [Example 37, (2-(3,8-diazabicyclo[3.2.1]octan-8-yl)-6,7-dihydrothiazolo[5,4-c]pyridin-5(4H)-yl)(2,2-dimethylcyclopentyl)methanone], for which, in the assay on m-IMCD3 cells, the activity at 10 µM is -2%.
On to `O=C(CC1CCCC1)N1Cc2sc(N3C4CCC3CNC4)nc2C(F)(F)C1` [Example 270, 1-(2-(3,8-diazabicyclo[3.2.1]octan-8-yl)-7,7-difluoro-6,7-dihydrothiazolo[5,4-c]pyridin-5(4H)-yl)-2-cyclopentylethan-1-one], for which, in the assay with m-IMCD3 cells, the activity at 3 µM worked out at 2%.
As to `CC[C@@H](C)C(=O)N1CCc2nc(N3C4CCC3CNC4)sc2C1` [Example 16, (2R)-1-(2-(3,8-diazabicyclo[3.2.1]octan-8-yl)-6,7-dihydrothiazolo[5,4-c]pyridin-5(4H)-yl)-2-methylbutan-1-one], in the assay on m-IMCD3 cells, the activity at 10 µM was -2%.
For the compound `Cc1ccc(-c2nc3c(s2)CN(C(=O)CC2CCCC2)CC3)cn1` [Example 305, 2-cyclopentyl-1-(2-(6-methylpyridin-3-yl)-6,7-dihydrothiazolo[5,4-c]pyridin-5(4H)-yl)ethan-1-one], the activity at 3 µM in the assay on m-IMCD3 cells was found to be 26%.
On to `CN1CC2CCC(C1)N2c1nc2c(s1)CN(C(=O)CC1CCCC1)C2` [Example 83, 2-cyclopentyl-1-(2-(3-methyl-3,8-diazabicyclo[3.2.1]octan-8-yl)-4,6-dihydro-5H-pyrrolo[3,4-d]thiazol-5-yl)ethan-1-one], for which the activity at 10 µM in the assay on m-IMCD3 cells was 4%.
Still for that read-out and setting: as for `COc1cc(F)ccc1CCC(=O)N1CCc2nc(N3C4CCC3CNC4)sc2C1` [Example 147, 1-(2-(3,8-diazabicyclo[3.2.1]octan-8-yl)-6,7-dihydrothiazolo[5,4-c]pyridin-5(4H)-yl)-3-(4-fluoro-2-methoxyphenyl)propan-1-one], the figure is 9%.
With `N#Cc1ccccc1C(=O)N1CCc2nc(N3C4CCC3CNC4)sc2C1` [Example 213, 2-(2-(3,8-diazabicyclo[3.2.1]octan-8-yl)-4,5,6,7-tetrahydrothiazolo[5,4-c]pyridine-5-carbonyl)benzonitrile], in the assay with m-IMCD3 cells, the activity at 3 µM amounted to 17%.

These data come from patent US20250388604A1, “Compounds and Their Use as PDE4 Activators” (Mironid Limited, priority 2022, published 2025).
